# Experimental data published in patent publication US8933295B2, “Identifying agents to treat alzheimer's disease-related decreased sorting behavior by administration to a triple transgenic mouse expressing mutant forms of APP, presenilin or tau” (Janssen Biotech, Inc., priority 2008, dated 2015).
# “Also recorded” adds a separate entry of the source.
# System: 3×Tg-AD mice
# Experiment: Sorting Activity Test (SAT), bedding sorting score, tricyclic antidepressants
# Type: in vivo, mouse
# Conditions: for mean sorting score over the course of the study: 6 cages x 7 weeks; for mean sorting score over the course of the study / mean sorting score: score 0-4; for mean sorting score: day 7 after bedding change, 6 cages, dosed once daily Mon-Fri
# Description: The 3×Tg-AD mice developed by LaFerla et al., at the University of California at Irvine (Neuron 2003b) were used in the study. These mice harbor mutations in three different genes: the β-amyloid precursor protein (APPSweKM→NL), presenilin-1 (PS1M146V) and tau (P301L). […] Intracellular A-beta peptide immunoreactivity has been reported to appear by as early as three months of age and extracellular A-beta deposits in evidence between six and 12 months of age (Oddo et al., 2003a, 2003b). In the cohort of mice used in the present studies, these hallmarks of AD were not observed until 19 months of age by immunohistochemical methods.
# Triple transgenic (3×Tg-AD) mice and corresponding non-transgenic control mice were weaned and group housed four (4) mice per cage in large static microisolator caging composed of a tinted polycarbonate cage, stainless steel lid, and polycarbonate filtered top at Ace Animals, Inc. Mice were fed 5% Fat Purina Autoclavable Breeder Diet (Item #RHI5R24CGP) and provided reverse osmosis chlorinated water ad libitum within a barrier environment in an environmentally controlled facility (22° C., 40-60% relative humidity) with a 12:12-hour light: dark cycle. Health status reports certify that all animals were free of known viral, bacterial, and parasitic pathogens.
# The unique factor within this colony was the use of a combination corncob and papered bedding (AlphaCobb® cat #ALPHA4B, Animal Specialties and Provisions, Quakertown, Pa.). The mice were 8 weeks of age at the start of the study.
# Mice were housed 2 per cage, 6 cages per group: Non-transgenic control, untreated, 3×Tg-AD, untreated, 3×Tg-AD, Desipramine, 30 mg/kg, and 3×Tg-AD, Imipramine. All mice were approximately two months of age at the start of the study. Mice were dosed once daily, Monday through Friday with test article. Cages were photographed weekly on Day 7, and cage bedding was changed once per week after photographs were taken.
# In order to quantify the sorting behavior of the mice in this study, a scoring system was devised. Before the start of the initial study the mice were observed. It was evident that the sorting behavior was not an “all or nothing” phenomenon, but rather existed in degrees. After observing the cages for some time, scoring criteria were established.
# In these cages, the two types of bedding were equally mixed throughout the cage. There was no area where one bedding type was more concentrated.
# In these cages, a small area of white bedding was seen, usually piled in a corner. The two types of bedding were equally mixed throughout the rest of the cage.
# A score of 2 was given to cages when the white area of bedding was more pronounced, yet the bedding throughout the rest of the cage was still mixed.
# A score of 3 was given to cages when the white area was very clearly defined, and very little white bedding was left mixed with the Alpha Cobb.
# A score of 4 was given to cages when the two types of bedding were almost completely separated from each other.
# The degree of sorting at the end of each 7 day period (before the cages were changed) was scored using this system.
# Using the scoring system devised and making daily observations of the cages, the behavior patterns of the non-transgenic control mice could be clearly distinguished from the 3×Tg-AD mice within a matter of a couple days, but was most prominent after Day 3. At Day 7 before each bedding change, the bedding of each cage was digitally photographed and scored. Table 1 provides the mean score and standard deviation (SD) for each group of mice for each week observed.
# Data was analyzed using GraphPad Prism software with ANOVA one-way analysis of variance followed by Dunnett's multiple comparison test. All groups (6 cages×7 weeks) were compared to untreated 3×TgAD group. Significance was defined as p<0.05.
SMILES,mean sorting score over the course of the study,"sorting behavior, in words (treated 3×Tg-AD mice compared to untreated Tg mice)",mean sorting score (week 1),mean sorting score (week 2),mean sorting score (week 3),mean sorting score (week 4),mean sorting score (week 5),mean sorting score (week 6),mean sorting score (week 7)
"CNCCCN1c2ccccc2CCc2ccccc21 [DESIPRAMINE, Desipramine]",0.67,regained some of the behavior; also recorded: greater effect than imipramine,0.00,0.50,1.17,0.83,0.83,0.50,0.83
"CN(C)CCCN1c2ccccc2CCc2ccccc21 [IMIPRAMINE, Imipramine]",0.31,–,0.00,0.67,0.17,0.33,0.33,0.33,0.33
